Laboratory results reported in patent publication US12240844B2 (Voronoi, Inc., priority 2019, dated 2025).
pIC50: −log10 of the molar value.

Columns and labels:
human GST-CLK1 (129-end) = target: T1, human GST-CLK1 (129-end) (Homo sapiens, UniProt P49759); assay: GST-CLK1 enzyme inhibition, ADP-Glo kinase assay; assay type: biochemical; settings: ATP 10 uM
T1 construct: purified human GST-CLK1 (129-end, Signalchem) enzyme; GST; purchased Signalchem
Procedure, shortened: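 ADP formation was read by ADP-Glo luminescence after 1 h at 25° C with 3 ng human GST-CLK1 (129-end), substrate and 10 uM ATP in Tris pH 7.4 buffer containing MgCl2, BSA and DTT. Inhibition relative to untreated solvent control gave IC50 (nM), run in triplicate.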

MDA-MB-231 cell line = assay: MDA-MB-231 cancer cell proliferation inhibition (Cell Titer-Glo); assay type: cell-based; settings: Homo sapiens, MDA-MB-231 triple-negative breast cancer cell line, 72 hours
Procedure, shortened: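 GI50 comes from CellTiter-Glo luminescence, read 10 min after reagent addition at RT, following 72 h compound treatment. Eleven concentrations were used (⅓ steps, highest 10 μM final) on 2000 cells/well. MDA-MB-231 and MDA-MB-468 were grown in DMEM, SHP-77 in RPMI.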

TTK = target: T2, TTK (Homo sapiens, UniProt P33981); assay: TTK enzyme inhibition, ADP-Glo kinase assay; assay type: biochemical; parameters: purchased Signalchem T20-10G; settings: ATP 5 μM
T2 sequence (P33981 1-857): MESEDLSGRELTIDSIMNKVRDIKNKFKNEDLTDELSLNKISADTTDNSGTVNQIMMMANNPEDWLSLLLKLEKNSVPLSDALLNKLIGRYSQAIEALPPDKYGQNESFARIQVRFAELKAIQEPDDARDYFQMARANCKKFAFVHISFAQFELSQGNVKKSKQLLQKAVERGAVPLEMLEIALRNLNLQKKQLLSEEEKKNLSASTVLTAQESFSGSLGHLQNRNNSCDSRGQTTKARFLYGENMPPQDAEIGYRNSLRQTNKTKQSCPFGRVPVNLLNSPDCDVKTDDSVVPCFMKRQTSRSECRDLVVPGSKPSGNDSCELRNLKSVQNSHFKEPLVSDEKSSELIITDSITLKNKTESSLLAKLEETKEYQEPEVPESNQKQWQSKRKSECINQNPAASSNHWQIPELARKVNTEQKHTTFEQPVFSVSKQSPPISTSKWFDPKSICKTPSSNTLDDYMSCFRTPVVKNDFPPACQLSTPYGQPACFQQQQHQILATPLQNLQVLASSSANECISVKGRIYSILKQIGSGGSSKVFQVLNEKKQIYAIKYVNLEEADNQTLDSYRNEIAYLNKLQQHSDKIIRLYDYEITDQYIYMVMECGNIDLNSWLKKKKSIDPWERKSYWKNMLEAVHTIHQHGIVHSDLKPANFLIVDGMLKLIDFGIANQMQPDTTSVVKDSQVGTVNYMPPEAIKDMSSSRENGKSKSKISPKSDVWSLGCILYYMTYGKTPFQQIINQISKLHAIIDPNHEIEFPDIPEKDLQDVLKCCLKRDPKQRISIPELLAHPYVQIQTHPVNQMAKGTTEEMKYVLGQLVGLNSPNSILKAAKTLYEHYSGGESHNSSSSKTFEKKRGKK
Procedure, shortened: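 Recombinant human TTK (7.5 ng) reacted with 5 μM ATP and MBP substrate (0.2 μg) for 4 h at 25° C in Tris-HCl pH 7.4, MgCl2, BSA, DTT buffer, compound at 0.000017–1 μM. ADP formation by ADP-Glo luminescence; IC50 (nM) relative to solvent control.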

T1 sequence (P49759 129-484 limits assumed): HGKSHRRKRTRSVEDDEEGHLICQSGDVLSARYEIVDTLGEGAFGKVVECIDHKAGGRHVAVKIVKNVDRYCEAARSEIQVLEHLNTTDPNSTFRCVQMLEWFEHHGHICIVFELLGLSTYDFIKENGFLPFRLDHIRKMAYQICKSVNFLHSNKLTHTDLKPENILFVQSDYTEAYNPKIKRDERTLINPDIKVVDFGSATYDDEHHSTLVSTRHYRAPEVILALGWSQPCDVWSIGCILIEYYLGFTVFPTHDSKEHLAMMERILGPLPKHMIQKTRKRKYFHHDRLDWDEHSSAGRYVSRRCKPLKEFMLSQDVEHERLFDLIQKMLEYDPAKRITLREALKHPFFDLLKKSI

Q: Which results are given for `N#Cc1c[nH]c2nc(Nc3ccc(C(=O)N4CCC(N5CCOCC5)CC4)c4c3OCCO4)cc(C3CC3)c12` [Example 226, 4-cyclopropyl-6-((8-(4-morpholinopiperidine-1-carbonyl)-2,3-dihydrobenzo[b] [1,4]dioxin-5-yl)amino)-1H-pyrrolo[2,3-b]pyridine-3-carbonitrile]?
A: pIC50 (human GST-CLK1 (129-end)): > 7.00; GI50 (MDA-MB-231 cell line): 301 to 1000 nM; pIC50 (TTK): > 7.00

Q: With `CNc1cc(Nc2ccc(S(=O)(=O)N3CCC(N4CCOCC4)CC3)c3c2OCCO3)nc2[nH]cc(C(F)(F)F)c12` [Example 233, N^4-methyl-N^6-(8-((4-morpholinopiperidin-1-yl)sulfonyl)-2,3-dihydrobenzo [b] [1,4]dioxin-5-yl)-3-(trifluoromethyl)-1H-pyrrolo[2,3-b]pyridine-4,6-diamine] as the compound, how does the pIC50 (human GST-CLK1 (129-end)) read?
A: > 7.00

Q: And the GI50 (MDA-MB-231 cell line)?
A: 301 to 1000 nM

Q: And the pIC50 (TTK)?
A: 6.52 to 7.00

Q: How did the pIC50 (human GST-CLK1 (129-end)) turn out when `COCCNc1cc(Nc2ccc(P3(=O)CCN(C4CC4)CC3)cc2OC)nc2[nH]cc(C(F)(F)F)c12` [Example 207, 1-cyclopropyl-4-(3-methoxy-4-((4-((2-methoxyethyl)amino)-3-(trifluoromethyl)-1H-pyrrolo[2,3-b]pyridin-6-yl)amino)phenyl)-1,4-azaphosphinane 4-oxide] was run?
A: 6.52 to 7.00

Q: And the GI50 (MDA-MB-231 cell line)?
A: 301 to 1000 nM

Q: What about the pIC50 (TTK) of the same compound?
A: > 7.00

Q: `O=C(c1ccc(Nc2cc(C3CC3)c3c(C(F)(F)F)c[nH]c3n2)c2c1OCCO2)N1CCOCC1` [Example 220, (8-((4-cyclopropyl-3-(trifluoromethyl)-1H-pyrrolo[2,3-b]pyridin-6-yl)amino)-2,3-dihydrobenzo[b] [1,4]dioxin-5-yl)(morpholino) methanone] was tested. Which pIC50 (human GST-CLK1 (129-end)) did it give?
A: 6.00 to 6.52

Q: And the GI50 (MDA-MB-231 cell line)?
A: 301 to 1000 nM

Q: And the pIC50 (TTK)?
A: > 7.00

Q: `COCCNc1cc(Nc2ccc(S(=O)(=O)N3CCC(N4CCOCC4)CC3)c3c2OCCO3)nc2[nH]cc(C(F)(F)F)c12` [Example 97, N^4-(2-methoxyethyl)-N^6-(8-((4-morpholonopiperidin-1-yl)sulfonyl)-2,3-dihydrobenzo[b] [1,4]dioxin-5-yl)-3-(trifluoromethyl)-1H-pyrrolo[2,3-b]pyridine-4,6-diamine] was tested. Which pIC50 (human GST-CLK1 (129-end)) did it give?
A: > 7.00

Q: What about the GI50 (MDA-MB-231 cell line) of the same compound?
A: 301 to 1000 nM

Q: What about the pIC50 (TTK) of the same compound?
A: 6.52 to 7.00

Q: `CNc1cc(Nc2ccc(C(=O)N3CCC(N4CCOCC4)CC3)c3c2OCC3)nc2[nH]cc(C(F)(F)F)c12` [Example 234, (7-((4-(methylamino)-3-(trifluoromethyl)-1H-pyrrolo[2,3-b]pyridin-6-yl)amino)-2,3-dihydrobenzofuran-4-yl)(4-morpholinopiperidin-1-yl)methanone] was tested. Which pIC50 (human GST-CLK1 (129-end)) did it give?
A: > 7.00

Q: And the GI50 (MDA-MB-231 cell line)?
A: 301 to 1000 nM

Q: And the pIC50 (TTK)?
A: > 7.00

Q: With `O=C(c1ccc(Nc2cc(C3CC3)c3c(C(F)(F)F)c[nH]c3n2)c2c1OCCO2)N1CCC(N2CCOCC2)CC1` [Example 221, (8-((4-cyclopropyl-3-(trifluoromethyl)-1H-pyrrolo[2,3-b]pyridin-6-yl)amino)-2,3-dihydrobenzo [b] [1,4]dioxin-5-yl)(4-morpholinopiperidin-1-yl)methanone] as the compound, how does the pIC50 (human GST-CLK1 (129-end)) read?
A: > 7.00

Q: And the GI50 (MDA-MB-231 cell line)?
A: 301 to 1000 nM

Q: And the pIC50 (TTK)?
A: > 7.00

Q: `CCNc1cc(Nc2ccc(C(=O)N3C[C@@H]4C[C@H]3CO4)c3c2OCCO3)nc2[nH]cc(C(F)(F)F)c12` [Example 44, ((1S,4S)-2-oxa-5-azabicyclo[2.2.1]heptan-5-yl)(8-((4-(ethylamino)-3-(trifluoromethyl)-1H-pyrrolo[2,3-b]pyridin-6-yl)amino)-2,3-dihydrobenzo[b] [1,4]dioxin-5-yl)methanone] was tested. Which pIC50 (human GST-CLK1 (129-end)) did it give?
A: > 7.00

Q: What about the GI50 (MDA-MB-231 cell line) of the same compound?
A: 301 to 1000 nM

Q: What about the pIC50 (TTK) of the same compound?
A: > 7.00

Q: How did the pIC50 (human GST-CLK1 (129-end)) turn out when `CCNc1cc(Nc2cc(F)c(S(=O)(=O)N3CCC(N4CCOCC4)CC3)cc2OC)nc2[nH]cc(C(F)(F)F)c12` [Example 266, N^4-ethyl-N^6-(5-fluoro-2-methoxy-4-((4-morpholinopiperidin-1-yl)sulfonyl)phenyl)-3-(trifluoromethyl)-1H-pyrrolo[2,3-b]pyridine-4,6-diamine] was run?
A: 6.00 to 6.52

Q: And the GI50 (MDA-MB-231 cell line)?
A: 301 to 1000 nM

Q: What about the pIC50 (TTK) of the same compound?
A: 6.00 to 6.52

Q: What does the source list for `CCNc1cc(Nc2ccc(P3(=O)CCN(C(C)=O)CC3)cc2OC)nc2[nH]cc(C(F)(F)F)c12` [Example 42, 1-(4-(4-((4-(ethylamino)-3-(trifluoromethyl)-1H-pyrrolo[2,3-b]pyridin-6-yl)amino)-3-methoxyphenyl)-4-oxido-1,4-azaphosphinan-1-yl)ethan-1-one]?
A: pIC50 (human GST-CLK1 (129-end)): 6.52 to 7.00; GI50 (MDA-MB-231 cell line): 301 to 1000 nM; pIC50 (TTK): > 7.00

Q: How did the pIC50 (human GST-CLK1 (129-end)) turn out when `COc1cc(S(=O)(=O)N2CCC(N3CCOCC3)CC2)ccc1Nc1cc(C2CC2)c2c(C#N)c[nH]c2n1` [Example 228, 4-cyclopropyl-6-((2-methoxy-4-((4-morpholinopiperidin-1-yl)sulfonyl)phenyl)amino)-1H-pyrrolo[2,3-b]pyridine-3-carbonitrile] was run?
A: 6.00 to 6.52

Q: And the GI50 (MDA-MB-231 cell line)?
A: 51 to 100 nM

Q: And the pIC50 (TTK)?
A: > 7.00

Q: How did the pIC50 (human GST-CLK1 (129-end)) turn out when `CNc1cc(Nc2ccc(C(=O)N3CCC(N4C[C@@H]5C[C@H]4CO5)CC3)c3c2OCC3)nc2[nH]cc(C(F)(F)F)c12` [Example 241, (4-((1S,4S)-2-oxa-5-azabicyclo[2.2.1]heptan-5-yl)piperidin-1-yl)(7-((4-(methylamino)-3-(trifluoromethyl)-1H-pyrrolo[2,3-b]pyridin-6-yl)amino)-2,3-dihydrobenzofuran-4-yl)methanone] was run?
A: > 7.00

Q: And the GI50 (MDA-MB-231 cell line)?
A: 301 to 1000 nM

Q: What about the pIC50 (TTK) of the same compound?
A: > 7.00

Q: `CCNc1cc(Nc2ccc(C(=O)N3CCC(N4C[C@H]5C[C@@H]4CO5)CC3)c3c2OCC3)nc2[nH]cc(C(F)(F)F)c12` [Example 244, (4-((1R,4R)-2-oxa-5-azabicyclo[2.2.1]heptan-5-yl)piperidin-1-yl)(7-((4-(ethylamino)-3-(trifluoromethyl)-1H-pyrrolo[2,3-b]pyridin-6-yl)amino)-2,3-dihydrobenzofuran-4-yl)methanone] was tested. Which pIC50 (human GST-CLK1 (129-end)) did it give?
A: > 7.00

Q: And the GI50 (MDA-MB-231 cell line)?
A: 301 to 1000 nM

Q: And the pIC50 (TTK)?
A: > 7.00

Q: With `CCNc1cc(Nc2ccc(C(=O)N3CCN(C4COC4)CC3)c3c2OCCO3)nc2[nH]cc(C(F)(F)F)c12` [Example 173, (8-((4-(ethylamino)-3-(trifluoromethyl)-1H-pyrrolo[2,3-b]pyridin-6-yl)amino)-2,3-dihydrobenzo[b] [1,4]dioxin-5-yl)(4-(oxetan-3-yl)piperazin-1-yl)methanone] as the compound, how does the pIC50 (human GST-CLK1 (129-end)) read?
A: > 7.00

Q: What about the GI50 (MDA-MB-231 cell line) of the same compound?
A: 301 to 1000 nM

Q: What about the pIC50 (TTK) of the same compound?
A: > 7.00

Q: `COc1cc(P2(=O)CCN(C(C)=O)CC2)ccc1Nc1cc(C2CC2)c2c(C(F)(F)F)c[nH]c2n1` [Example 48, 1-(4-(4-((4-cyclopropyl-3-(trifluoromethyl)-1H-pyrrolo[2,3-b]pyridin-6-yl)amino)-3-methoxyphenyl)-4-oxido-1,4-azaphosphinan-1-yl)ethan-1-one] was tested. Which pIC50 (human GST-CLK1 (129-end)) did it give?
A: 6.00 to 6.52

Q: And the GI50 (MDA-MB-231 cell line)?
A: 301 to 1000 nM

Q: What about the pIC50 (TTK) of the same compound?
A: 6.00 to 6.52

Q: With `CNc1cc(Nc2ccc(C(=O)N3CC[C@@H](N4CCOCC4)C3)c3c2OCC3)nc2[nH]cc(C(F)(F)F)c12` [Example 214, (R)-(7-((4-(methylamino)-3-(trifluoromethyl)-1H-pyrrolo[2,3-b]pyridin-6-yl)amino)-2,3-dihydrobenzofuran-4-yl)(3-morpholinopyrrolidin-1-yl)methanone] as the compound, how does the pIC50 (human GST-CLK1 (129-end)) read?
A: > 7.00

Q: What about the GI50 (MDA-MB-231 cell line) of the same compound?
A: 301 to 1000 nM

Q: And the pIC50 (TTK)?
A: 6.52 to 7.00

Q: What does the source list for `COCCNc1cc(Nc2ccc(C(=O)N3CCC(N4CCOCC4)CC3)c3c2OCC3)nc2[nH]cc(C(F)(F)F)c12` [Example 55, (7-((4-((2-methoxyethyl)amino)-3-(trifluoromethyl)-1H-pyrrolo[2,3-b]pyridin-6-yl)amino)-2,3-dihydrobenzofuran-4-yl)(4-morpholinopiperidin-1-yl)methanone]?
A: pIC50 (human GST-CLK1 (129-end)): > 7.00; GI50 (MDA-MB-231 cell line): 301 to 1000 nM; pIC50 (TTK): 6.52 to 7.00

Q: How did the pIC50 (human GST-CLK1 (129-end)) turn out when `COc1cc(S(=O)(=O)N2CCOCC2)ccc1Nc1cc(C2CC2)c2c(C(F)(F)F)c[nH]c2n1` [Example 222, 4-cyclopropyl-N-(2-methoxy-4-(morpholinosulfonyl)phenyl)-3-(trifluoromethyl)-1H-pyrrolo[2,3-b]pyridin-6-amine] was run?
A: 6.00 to 6.52

Q: What about the GI50 (MDA-MB-231 cell line) of the same compound?
A: 301 to 1000 nM

Q: What about the pIC50 (TTK) of the same compound?
A: > 7.00
